Results from publication PMC5458078, “Global mapping of CARM1 substrates defines enzyme specificity and substrate recognition” (Nature Communications, 2017).

tested on: MCF7 cells; test: Quantitative nanoLC-MS/MS (TMT) of ADMA-containing peptides, CARM1 KO vs parental; assay type: cell-based, human; set-up: Fold change KO/WT: scale not given here; settings: ADMA-containing peptide, CARM1 knockout (KO) vs wild type (WT) MCF7 cells; 6-plex TMT experiment #1; three biological replicates each; sheet "MCF7"

Compared with GQPVGGLrFEGPHGQPVGGLrFDNPR, QLrMQLQQrLQGQQFLNQSrQALELK is lower in “Fold change KO/WT” value: -1.132 for the first, -3.961 for the second.

Compared with “FDGSPGQMGGGGPLrFEGPQGQLGGGCPLrFEGPPGPVGTPLrFEGPIGQAGGGGFR”, APDEPQQAQVPHVWGWEVAGAPALrLQK is higher in “Fold change KO/WT” value: -4.068 for the first, -2.912 for the second.

First: GLPTTTQrVGVPTAVQNLAPrAAVAAAAPrAVAPYK
Second: GrGSLLLR
The “Fold change KO/WT” value of the first is lower: -2.96 for the first, 1.1394 for the second.

First: GPPPFPGVPLMSTPMGGPVPPPIrYGPPPQLCGPFGPrPLPPPFGPGMrPPLGLREFAPGVPPGrR
Second: QLrMQLQQrLQGQQFLNQSR
The “Fold change KO/WT” value of the first is lower: -2.997 for the first, -2.764 for the second.

With TSVYrQQQPAVPQGQrLrQQLQAK the “Fold change KO/WT” value was -4.048.

same assay, conditions: ADMA-containing peptide, MCF7, CARM1 knockout (KO1-3) vs wild type (WT1-3), TMT 6-plex experiment #1

First: VQTHLENPTrYHLQQAR
Second: QGQPTPLVIQQPPKPGALIrPPQVTLTQTPMVALrQPHNR
The “Fold change KO/WT” value of the first is higher: -1.173 for the first, -2.284 for the second.

Going from FrPNPLNNPR to ANYNFrGMYNQrYHCPVPK, the “Fold change KO/WT” value falls from 0.07251 to -3.002.

Compared with LGHDPYrLGHDAYrLGQDPYrLGHDPYR, FGDMSYSIrHSISMPAMR is lower in “Fold change KO/WT” value: -1.602 for the first, -3.258 for the second.

First: LITFQLrHILK
Second: YCLTAPNYrLK
The “Fold change KO/WT” value of the first is lower: -5.219 for the first, -0.9585 for the second.

For LVPrLSVGAVSSKPTTPTIATPQTVSVPNK, the “Fold change KO/WT” value was -1.953.

same assay, conditions: CARM1 KO vs wild type MCF7 cells, 3 biological replicates each

Compared with SGSNWGrGSNMNSGPPR, HASErGHLR is higher in “Fold change KO/WT” value: 0.3426 for the first, 1.422 for the second.

First: VIGTAVArYNFAAR
Second: IPGIPrHSGPQYSMMQPHLQR
The “Fold change KO/WT” value of the first is lower: -2.89 for the first, -0.5283 for the second.

First: LTVPrYSIPTGDPPPYPEIASQLAQGR
Second: GTPGPPPAHGAALQPHPrVNFCPLPSEQCYQAPGGPEDR
The “Fold change KO/WT” value of the first is lower: -2.163 for the first, -0.7925 for the second.

In the case of QAAPQMLQQQPPrLISVQTMQR, the “Fold change KO/WT” value is reported as -1.292.

same assay, conditions: MCF7, CARM1 KO (KO1-KO3) vs wild type (WT1-WT3)

Going from SVVESSAPGANNLQVNALVArLPLLLPrAPR to SLIPPIPVSPPILAPrLSSGALK, the “Fold change KO/WT” value falls from -2.886 to -3.075.

First: QPPPLQQQArFIQPrPTLNQPPPPLIrPANSMPPR
Second: MGTPVPrPPQDMGQIGVRTPLGPrVAAPVGPVGPTPTVLPMGAPVPrPR
The “Fold change KO/WT” value of the first is higher: -1.373 for the first, -2.512 for the second.

Compared with ErLALAGPQLrPEMSYPDR, “GTVVTPVQVPLLPVPSQPrPAVGPQrFPGPPEFPQHTPGPVPNSFSQPPrLPLQDQWrAPPPPQDR” is lower in “Fold change KO/WT” value: -2.989 for the first, -3.321 for the second.

Going from LQNAFWEHGASrAMLPGSPLFTrAPPPK to AGIGVYWGPGHPLNVGIrLPGR, the “Fold change KO/WT” value rises from -2.217 to -0.8432.

tested on: MCF7 CARM1 KO cells; test: Quantitative MS of ADMA-containing peptides in MCF7 CARM1 KO cells expressing CARM1 28-608 or CARM1 140-608, and in CARM1 KO; assay type: cell-based, human; settings: not given

Going from ANYNFrGMYNQrYHCPVPK to LGHDPYrLGHDAYrLGQDPYrLGHDPYR, the “CARM1 140-608/WT” value rises from -2.05 to -1.775.

Compared with ANYNFrGMYNQrYHCPVPK, LGHDPYrLGHDAYrLGQDPYrLGHDPYR is higher in KO/WT: -3.002 for the first, -1.602 for the second.

same assay, conditions: CARM1 140-608 versus WT, difference of mean log2 values

Compared with SGSNWGrGSNMNSGPPR, LITFQLrHILK is lower in “CARM1 140-608/WT” value: 0.2533 for the first, -4.254 for the second.

Going from HASErGHLR to VIGTAVArYNFAAR, the “CARM1 140-608/WT” value falls from 0.2697 to -1.8723.

First: IPGIPrHSGPQYSMMQPHLQR
Second: LTVPrYSIPTGDPPPYPEIASQLAQGR
The “CARM1 140-608/WT” value of the first is higher: 1.323 for the first, -0.6093 for the second.

Going from GTPGPPPAHGAALQPHPrVNFCPLPSEQCYQAPGGPEDR to QAAPQMLQQQPPrLISVQTMQR, the “CARM1 140-608/WT” value rises from -1.327 to -0.6208.

same assay, conditions: CARM1 140-608 versus WT, mean of three replicates (log2)

Compared with GQPVGGLrFEGPHGQPVGGLrFDNPR, LQNAFWEHGASrAMLPGSPLFTrAPPPK is lower in “CARM1 140-608/WT” value: 0.02925 for the first, -1.727 for the second.

Going from QLrMQLQQrLQGQQFLNQSrQALELK to “FDGSPGQMGGGGPLrFEGPQGQLGGGCPLrFEGPPGPVGTPLrFEGPIGQAGGGGFR”, the “CARM1 140-608/WT” value rises from -3.52 to 0.07812.

First: GLPTTTQrVGVPTAVQNLAPrAAVAAAAPrAVAPYK
Second: GrGSLLLR
The “CARM1 140-608/WT” value of the first is lower: -1.934 for the first, 0.6421 for the second.

In the case of QLrMQLQQrLQGQQFLNQSR, the “CARM1 140-608/WT” value is reported as -0.1108.

same assay, conditions: CARM1 140-608 vs WT, mean of 3 replicates (log2 scale)

Compared with SVVESSAPGANNLQVNALVArLPLLLPrAPR, SLIPPIPVSPPILAPrLSSGALK is higher in “CARM1 140-608/WT” value: -1.353 for the first, -0.7213 for the second.

First: QPPPLQQQArFIQPrPTLNQPPPPLIrPANSMPPR
Second: MGTPVPrPPQDMGQIGVRTPLGPrVAAPVGPVGPTPTVLPMGAPVPrPR
The “CARM1 140-608/WT” value of the first is higher: 1.096 for the first, -3.81 for the second.

Going from ErLALAGPQLrPEMSYPDR to “GTVVTPVQVPLLPVPSQPrPAVGPQrFPGPPEFPQHTPGPVPNSFSQPPrLPLQDQWrAPPPPQDR”, the “CARM1 140-608/WT” value rises from -2.2623 to -1.653.

AGIGVYWGPGHPLNVGIrLPGR was tested, and the “CARM1 140-608/WT” value was -0.6349.

same assay, conditions: CARM1 KO versus WT, difference of mean log2 values

Going from SGSNWGrGSNMNSGPPR to LITFQLrHILK, the KO/WT falls from 0.9633 to -5.219.

Compared with HASErGHLR, VIGTAVArYNFAAR is lower in KO/WT: 1.422 for the first, -2.89 for the second.

Compared with IPGIPrHSGPQYSMMQPHLQR, LTVPrYSIPTGDPPPYPEIASQLAQGR is lower in KO/WT: -0.1608 for the first, -2.766 for the second.

Going from GTPGPPPAHGAALQPHPrVNFCPLPSEQCYQAPGGPEDR to QAAPQMLQQQPPrLISVQTMQR, the KO/WT falls from -0.7925 to -1.292.

same assay, conditions: KO versus WT, mean of three replicates (log2)

Compared with GQPVGGLrFEGPHGQPVGGLrFDNPR, LQNAFWEHGASrAMLPGSPLFTrAPPPK is lower in KO/WT: -0.8726 for the first, -2.217 for the second.

Compared with QLrMQLQQrLQGQQFLNQSrQALELK, “FDGSPGQMGGGGPLrFEGPQGQLGGGCPLrFEGPPGPVGTPLrFEGPIGQAGGGGFR” is higher in KO/WT: -6.321 for the first, -4.068 for the second.

Going from GLPTTTQrVGVPTAVQNLAPrAAVAAAAPrAVAPYK to GrGSLLLR, the KO/WT rises from -2.638 to 1.1394.

For QLrMQLQQrLQGQQFLNQSR, the KO/WT was -1.926.

same assay, conditions: KO vs WT, mean of 3 replicates (log2 scale)

Compared with SVVESSAPGANNLQVNALVArLPLLLPrAPR, SLIPPIPVSPPILAPrLSSGALK is higher in KO/WT: -2.886 for the first, -2.509 for the second.

Compared with QPPPLQQQArFIQPrPTLNQPPPPLIrPANSMPPR, “MGTPVPrPPQDMGQIGVRTPLGPrVAAPVGPVGPTPTVLPMGAPVPrPR” is lower in KO/WT: -1.373 for the first, -4.903 for the second.

First: ErLALAGPQLrPEMSYPDR
Second: GTVVTPVQVPLLPVPSQPrPAVGPQrFPGPPEFPQHTPGPVPNSFSQPPrLPLQDQWrAPPPPQDR
The KO/WT of the first is higher: -2.989 for the first, -3.712 for the second.

AGIGVYWGPGHPLNVGIrLPGR was tested, and the KO/WT was -0.8432.

same assay, conditions: difference of log2 means, CARM1 140-608 vs WT

First: APDEPQQAQVPHVWGWEVAGAPALrLQK
Second: GPPPFPGVPLMSTPMGGPVPPPIrYGPPPQLCGPFGPrPLPPPFGPGMrPPLGLREFAPGVPPGrR
The “CARM1 140-608/WT” value of the first is lower: -2.552 for the first, -1.1204 for the second.

For TSVYrQQQPAVPQGQrLrQQLQAK, the “CARM1 140-608/WT” value was -3.863.

same assay, conditions: difference of log2 means, KO vs WT

First: APDEPQQAQVPHVWGWEVAGAPALrLQK
Second: GPPPFPGVPLMSTPMGGPVPPPIrYGPPPQLCGPFGPrPLPPPFGPGMrPPLGLREFAPGVPPGrR
The KO/WT of the first is lower: -3.114 for the first, -2.997 for the second.

TSVYrQQQPAVPQGQrLrQQLQAK was tested, and the KO/WT was -4.228.

same assay, conditions: log2 scale ratio, mean of n = 3

Compared with VQTHLENPTrYHLQQAR, “QGQPTPLVIQQPPKPGALIrPPQVTLTQTPMVALrQPHNR” is higher in “CARM1 140-608/WT” value: -1.396 for the first, -1.328 for the second.

First: FrPNPLNNPR
Second: FGDMSYSIrHSISMPAMR
The “CARM1 140-608/WT” value of the first is higher: 0.04278 for the first, -2.806 for the second.

Going from YCLTAPNYrLK to LVPrLSVGAVSSKPTTPTIATPQTVSVPNK, the “CARM1 140-608/WT” value falls from -1.503 to -1.646.

Compared with VQTHLENPTrYHLQQAR, “QGQPTPLVIQQPPKPGALIrPPQVTLTQTPMVALrQPHNR” is lower in KO/WT: -1.173 for the first, -2.284 for the second.

Compared with FrPNPLNNPR, FGDMSYSIrHSISMPAMR is lower in KO/WT: 0.4697 for the first, -3.258 for the second.

Going from YCLTAPNYrLK to LVPrLSVGAVSSKPTTPTIATPQTVSVPNK, the KO/WT falls from -1.727 to -1.953.
